Reference: US7608577B2, “Peptidyl ketones as inhibitors of DPIV” (OSI Pharmaceuticals, Inc., priority 2001, dated 2009)

Experiments:
[1] = test system: diabetic Zucker rats; assay: Glucose tolerance (OGTT) in diabetic Zucker rats; assay type: in vivo, Zucker rats (fa/fa); conditions: for Improvement: vs AUC control
Procedure: N=30 male Zucker rats (fa/fa), mean age 11 weeks (5-12 weeks), mean body weight 350 g (150-400 g), were purchased from Charles River (Sulzfeld, Germany). They were kept for >12 weeks until all the fatty Zucker rats had the characteristics of manifest Diabetes mellitus.
Animals were kept single-housed under conventional conditions with controlled temperature (22±2° C.) on a 12/12 hours light/dark cycle (light on at 06:00 a.m.). Standard pellets (ssniff®, Soest, Germany) and tap water acidified with HCl were allowed ad libitum.
Fatty Zucker rats, 17-24 weeks old, adapted to the housing conditions, were well prepared for the tests. Catheters were implanted into the carotid artery of fatty Zucker rats under general anaesthesia (i.p. injection of 0.25 ml/kg b.w. Rompun® [2%], BayerVital, Germany and 0.5 ml/kg b.w. Ketamin 10, Atarost GmbH & Co., Twistringen, Germany). The animals were allowed to recover for one week. The catheters were flushed with heparin-saline (100 IU/ml) three times per week. In case of catheter dysfunction, a second catheter was inserted into the contra-lateral carotid artery of the respective rat. After one week of recovery from surgery, this animal was reintegrated into the study. In case of dysfunction of the second catheter, the animal was withdrawn from the study. A new animal was recruited and the experiments were continued in the planned sequence, beginning at least 7 days after catheter implantation.
Fatty Zucker rats with intact catheter function were given in random order placebo (1 ml saline, 0.154 mol/l; N=9 animals as control), or test substance, solved in 1 ml saline (N=6 animals in each test group).
After overnight fasting, the fatty Zucker rats were given placebo and test substance, respectively, via feeding tube orally (15 G, 75 mm; Fine Science Tools, Heidelberg, Germany) at −10 min. An oral glucose tolerance test (OGTT) with 2 g/kg b.w. glucose as a 40% solution (B. Braun Melsungen, Melsungen, Germany) was implemented at ±0 min. The glucose was administered via a second feeding tube. Arterial blood samples from the carotid catheter were collected at −30 min, −15 min, ±0 min and at 5, 10, 15, 20, 30, 40, 60, 90 and 120 min into 20 μl glass capillaries, which were placed in standard tubes filled with 1 ml solution for hemolysis (blood glucose measurement). […]
Blood glucose: Glucose levels were measured using the glucose oxidase procedure (Super G Glukosemeβgerät; Dr. Müller Gerätebau, Freital, Germany).

[2] = biological target: T1, dipeptidyl peptidase IV from porcine kidney (Sus scrofa, UniProt P22411); assay: Ki determination, DPIV inhibition (inhibitor released from prodrug by APN); assay type: biochemical; conditions: for Ki: porcine kidney DPIV, substrate Gly-Pro-pNA, APN added to release inhibitor, HEPES pH7.6, read-out: Ki; for T1/2 (half-life, from enzyme activity versus reaction time): same assay as Ki, unstable competitive inhibitor
T1 construct: dipeptidyl peptidase IV from porcine kidney with a specific activity against glycylprolyl-4-nitroaniline of 37.5 U/mg; from tissue; host or cells: porcine kidney
T1 sequence (P22411 whole entry): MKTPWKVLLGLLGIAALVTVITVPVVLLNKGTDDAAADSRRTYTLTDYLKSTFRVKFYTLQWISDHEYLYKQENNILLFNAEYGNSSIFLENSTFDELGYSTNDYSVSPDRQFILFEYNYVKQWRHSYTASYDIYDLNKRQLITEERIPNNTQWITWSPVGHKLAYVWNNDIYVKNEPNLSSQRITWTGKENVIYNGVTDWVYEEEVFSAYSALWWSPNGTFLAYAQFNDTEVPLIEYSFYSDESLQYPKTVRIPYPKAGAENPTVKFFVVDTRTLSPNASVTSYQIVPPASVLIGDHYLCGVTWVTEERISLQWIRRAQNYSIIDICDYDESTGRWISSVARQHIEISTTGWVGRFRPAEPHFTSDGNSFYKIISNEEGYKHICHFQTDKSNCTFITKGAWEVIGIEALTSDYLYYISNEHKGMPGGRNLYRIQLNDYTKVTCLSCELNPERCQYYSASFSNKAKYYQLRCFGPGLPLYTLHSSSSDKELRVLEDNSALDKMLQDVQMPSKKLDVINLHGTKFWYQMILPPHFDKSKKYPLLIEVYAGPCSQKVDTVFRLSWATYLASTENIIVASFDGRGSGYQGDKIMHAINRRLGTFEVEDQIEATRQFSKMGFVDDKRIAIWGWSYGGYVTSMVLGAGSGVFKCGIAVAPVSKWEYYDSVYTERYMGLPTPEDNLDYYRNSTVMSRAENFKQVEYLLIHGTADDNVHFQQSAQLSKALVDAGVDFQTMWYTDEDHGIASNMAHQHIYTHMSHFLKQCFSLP
Procedure: 500 μl test compound in a concentration range of 1*10^−5 M-1*10^−11M were admixed with and 500 μl HEPES buffer (40 mM, pH7.6; ion strength=0.125) and 20 μl of diluted DPIV. Release of the inhibitor from the prodrug as well the monitoring reaction (DPIV-catalyzed hydrolysis of Gly-Pro-pNA) were started by addition of a mixture of 10 μl of APN stock solution (4.9 mg/ml, Sigma, Taufkirchen, Germany) with 250 μl of the substrate (Gly-Pro-pNA, 0.05-4 mM). Development of yellow color due to 4-nitroaniline release were monitored at λ=405 nm for up to 180 min using UV1 Spectrometer (ThermoSpectronic).
The Ki-values were calculated by fitting the first derivative of the time-progress curves using Graphit (v.4.0.13, Erithacus Software, Ltd, UK) and an equation for an unstable competitive inhibitor.
The half-life (t1/2) was calculated by plotting the enzyme activity versus reaction time.

[3] = biological target: T2, Angiotensin-I converting enzyme (ACE) (Oryctolagus cuniculus, UniProt P12822); assay: Cross reacting enzymes: ACE; assay type: biochemical; conditions: Sigma enzyme A-6778
T2 construct: purchased Sigma A-6778
T2 sequence (P12822 34-1310): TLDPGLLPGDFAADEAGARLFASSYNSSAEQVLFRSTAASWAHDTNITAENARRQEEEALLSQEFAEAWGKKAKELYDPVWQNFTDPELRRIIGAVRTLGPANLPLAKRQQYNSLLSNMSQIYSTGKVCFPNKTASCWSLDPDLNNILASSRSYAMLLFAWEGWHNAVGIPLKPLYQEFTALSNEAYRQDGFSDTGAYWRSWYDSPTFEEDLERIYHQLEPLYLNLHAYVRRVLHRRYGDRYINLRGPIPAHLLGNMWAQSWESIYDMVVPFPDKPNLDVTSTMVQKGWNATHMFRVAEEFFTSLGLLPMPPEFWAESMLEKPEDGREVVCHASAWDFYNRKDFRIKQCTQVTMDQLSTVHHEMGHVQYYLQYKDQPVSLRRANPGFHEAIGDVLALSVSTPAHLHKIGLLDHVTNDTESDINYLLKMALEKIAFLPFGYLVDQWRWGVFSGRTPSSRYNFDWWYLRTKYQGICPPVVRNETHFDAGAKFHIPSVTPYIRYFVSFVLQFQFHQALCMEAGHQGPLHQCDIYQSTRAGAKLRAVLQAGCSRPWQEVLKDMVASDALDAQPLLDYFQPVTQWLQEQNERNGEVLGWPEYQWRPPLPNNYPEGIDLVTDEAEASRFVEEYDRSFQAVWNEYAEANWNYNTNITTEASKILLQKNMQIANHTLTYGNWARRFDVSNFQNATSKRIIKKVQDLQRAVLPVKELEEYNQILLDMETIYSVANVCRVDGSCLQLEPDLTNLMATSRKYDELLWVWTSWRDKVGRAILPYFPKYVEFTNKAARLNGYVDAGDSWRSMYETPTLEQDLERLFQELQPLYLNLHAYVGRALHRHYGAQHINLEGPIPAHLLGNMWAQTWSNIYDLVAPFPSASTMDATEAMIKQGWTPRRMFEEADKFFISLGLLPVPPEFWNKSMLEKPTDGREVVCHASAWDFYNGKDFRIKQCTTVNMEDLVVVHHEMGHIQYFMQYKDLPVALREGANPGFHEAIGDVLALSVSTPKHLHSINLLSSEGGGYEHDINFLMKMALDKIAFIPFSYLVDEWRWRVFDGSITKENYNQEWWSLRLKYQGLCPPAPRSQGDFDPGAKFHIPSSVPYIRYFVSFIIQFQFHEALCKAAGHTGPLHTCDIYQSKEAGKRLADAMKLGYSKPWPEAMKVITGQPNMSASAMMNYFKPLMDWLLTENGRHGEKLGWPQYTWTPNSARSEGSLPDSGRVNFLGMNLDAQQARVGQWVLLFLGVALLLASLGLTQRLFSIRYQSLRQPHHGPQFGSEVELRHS
Procedure: For IC50 determination of ACE an enzyme produced by Sigma was used (Prod. No. A-6778). The assay procedure and calculation of activity described by the manufacturer was adapted to half of the described volumes.
The IC50-values were calculated using Graphit 4.0.15 (Erithacus Software, Ltd., UK).

Ki [2]	T1/2 (half-life, from enzyme activity versus reaction time) [2]	ACE IC50 [3]	SMILES	AUC test compound ([1]; OGTT, 5 mg/kg b.w. oral)	Improvement ([1]; OGTT, 5 mg/kg b.w. oral)	AUC test compound ([1]; OGTT, 15 mg/kg b.w. oral)	Improvement ([1]; OGTT, 15 mg/kg b.w. oral)	AUC test compound ([1]; OGTT, 50 mg/kg b.w. oral)	Improvement ([1]; OGTT, 50 mg/kg b.w. oral)	AUC test compound ([1]; OGTT 2 g/kg glucose, 100 mg/kg b.w. oral)	Improvement ([1]; OGTT, 100 mg/kg b.w. oral)
1.05 nM	10.8 min	no inhibition	Br.CC(=O)OCC(=O)[C@@H]1CCCN1C(=O)[C@@H](NC(=O)[C@H](C)N)C(C)C [H-Ala-Val-Pro-CH2O—CO—CH3*HBr, 2-[(Acetyloxy-methyl)carbonyl]-1-N-[(L)-Alanyl-(L)-Valinyl]-(2S)-pyrrolidine hydrobromide]	309.1 mmol·min/L	44.9%	300.9 mmol·min/L	46.4%	254.7 mmol·min/L	54.6%	–	–
0.536 nM	15.1 min	no inhibition	Br.CC(C)[C@H](NC(=O)[C@H](C)N)C(=O)N1CCC[C@H]1C(=O)COC(=O)c1ccccc1 [H-Ala-Val-Pro-CO—CH2O—CO—Ph*HBr, 2-[(Benzoyloxy-methyl)carbonyl]-1-N-[{(L)-Alanyl}-(L)-Valinyl]-(2S)-pyrrolidine hydrobromide]	209.1 mmol·min/L	59.5%	245.4 mmol·min/L	52.6%	160.5 mmol·min/L	69.0%	–	–
47.6 nM	12.4 min	no inhibition	Br.CC(=O)[C@@H]1CCCN1C(=O)[C@@H](NC(=O)[C@H](C)N)C(C)C [H-Ala-Val-Pro-Me*HBr, 2-Methylcarbonyl-1-N-[(L)-Alanyl-(L)-Valinyl]-(2S)-pyrrolidine hydrobromide]	–	–	–	–	–	–	394.4 mmol·min/L	48.5%
